Common to all, as to assay type: physicochemical
The nature of series [1]: Encapsulation efficiency and load of furosemide in nanoparticles (Example 8). An excerpt:
(§1) The encapsulation efficiency (EE) refers to the percentage of drug which is trapped in the chitosan-cyclodextrin system with respect to the quantity of drug added in the process of preparation of the nanoparticles. The drug load is indirectly determined from a calculation of the non-encapsulated drug which remains dissolved in the nanoparticles' suspension medium. The difference between this value and the theoretical drug content is taken to be the quantity of drug loaded in the nanoparticles. The drug load percentage which appears in the table is the percentage with respect to the quantity of encapsulated drug in 100 mg of nanoparticle.
The drug that was not dissolved by the cyclodextrin-polymer mixture was discarded during the filtration process (through 0.45 .m) which was conducted prior to crosslinking the polymer (see example 3). […]. […]

Series [2] in a line: Dissolved triclosan in 80% water / 20% ethanol phase (Example 10). How it is done:
(§2) In a mixture of 80% water and 20% ethanol, solutions (3 ml) of chitosan (Protasan Cl110, 0.2%), HP.CD (0, 1.28 and 2.56 mM) and triclosan were prepared in a sufficient quantity to oversaturate the solution. These solutions were incubated for 24 h under magnetic stirring and, subsequently, filtered through a 0.45-.m filter and crosslinked by the addition of 1.2 ml of tripolyphosphate dissolved in a mixture of 80% water and 20% ethanol at a concentration of 1.25 mg/ml. The nanoparticles were isolated by centrifugation at 16000×g and resuspended in water. The size of the resulting particles and the polydispersion thereof were characterised by means of photon correlation spectroscopy (PCS). The quantity of encapsulated drug was determined by the degradation of an aliquot of the resuspended nanoparticles with the enzyme chitosanase (Chitosanase-RD, Pias Co, Japan), and the assessment was performed by means of spectrophotometry (.=280 nm).

Series [3] in a line: Encapsulation efficiency and load of triclosan, chitosanase degradation (Example 10). Conditions: 80% water/20% ethanol. As to the method:
as §2

Series [4] in a line: Encapsulation efficiency and load of triclosan in nanoparticles (Example 7). How it is done:
(§3) Nanoparticles of chitosan-cyclodextrin were obtained according to the method described in example 2, but adding a sufficient quantity of the drug triclosan to the initial solutions in order to oversaturate the solution. The drug that was not dissolved by the cyclodextrin-polymer mixture was discarded during the filtration process (through 0.45 .m) which was conducted prior to crosslinking the polymer by means of ionotropic crosslinking (see example 2). […] The triclosan was measured by means of a spectrophotometric method (.=280 nm).
as §1

Series [5] is described as follows: Solubility of triclosan in the initial chitosan-cyclodextrin solutions (Example 7). The conditions noted are these: aqueous with cosolvent or surfactant or cyclodextrin, thermodynamic from solid. As to the method: as §3
The mark [6] stands for this setting: type HPCD •, 25 mM (first 25 mM line).
The mark [7] stands for this setting: type HPCD •, 25 mM (second 25 mM line).

SMILES strings stand for the structures. Values after ≈ are worked out from the molar mass of the structure shown.

Turning to `NS(=O)(=O)c1cc(C(=O)O)c(NCc2ccco2)cc1Cl` [furosemide], the “furosemide EE” value was determined as 22.3 ± 1.4% in series [1] (HPCD 0 mM); 17.1 ± 3.0% in series [1] (type HPCD •, 3.14 mM); 12.1 ± 1.3% in series [1] (type HPCD •, 6.29 mM); 7.2 ± 3.1% in series [1] (setting [6]); 8.8 ± 2.7% in series [1] (setting [7]). In addition, the load of furosemide came to 0.23 ± 0.07% in series [1] (HPCD 0 mM); 0.89 ± 0.04% in series [1] (type HPCD •, 3.14 mM); 1.43 ± 0.24% in series [1] (type HPCD •, 6.29 mM); 2.39 ± 0.72% in series [1] (setting [6]); 1.92 ± 0.55% in series [1] (setting [7]).

Regarding `Oc1cc(Cl)ccc1Oc1ccc(Cl)cc1Cl` [triclosan], the figures for the dissolved triclosan in series [2] (HP•CD 0 mM), in series [2] (HP•CD 1.28 mM) and in series [2] (HP•CD 2.56 mM) were 719 ± 79 mg/L, 2536 ± 283 mg/L and 3521 ± 213 mg/L, respectively. Also, the load of triclosan stood at 2.2 ± 0.9% in series [3] (HP•CD 0 mM), 7.4 ± 1.3% in series [3] (HP•CD 1.28 mM) and 8.7 ± 0.2% in series [3] (HP•CD 2.56 mM). In addition, the “triclosan EE” value was 22.3 ± 1.4% in series [3] (HP•CD 0 mM); 37.7 ± 7.3% in series [3] (HP•CD 1.28 mM); 33.5 ± 2.7% in series [3] (HP•CD 2.56 mM); 12.5 ± 8% in series [4] (HPCD 0 mM); 5.2 ± 7% in series [4] (type HPCD •, 3.14 mM); 4.8 ± 3% in series [4] (type HPCD •, 6.29 mM). In addition, the “triclosan EE” value is recorded as 5.5 ± 5% in series [4] (setting [6]) and 4.6 ± 4% in series [4] (setting [7]). Further, the triclosan load is recorded as 0.8 ± 0.3% in series [4] (HPCD 0 mM); 1.1 ± 0.2% in series [4] (type HPCD •, 3.14 mM); 2.2 ± 0.1% in series [4] (type HPCD •, 6.29 mM); 3.1 ± 0.1% in series [4] (setting [6]); 2.0 ± 0.1% in series [4] (setting [7]). The solubility in series [5] (HPCD 0 mM) turned out to be 68 ± 17 µg/mL (≈ 235 µM); in series [5] (type HPCD •, 3.14 mM), 211 ± 24 µg/mL (≈ 729 µM); in series [5] (type HPCD •, 6.29 mM), 588 ± 18 µg/mL (≈ 2030 µM); in series [5] (setting [6]), 1120 ± 13 µg/mL (≈ 3870 µM); in series [5] (setting [7]), 870 ± 59 µg/mL (≈ 3000 µM).

The term solubility denotes the concentration that dissolves in the medium under given conditions.

These data come from patent US20080220030A1, “Nanoparticles Comprising Chitosan and Cyclodextrin” (UNIVERSIDADE DE SANTIAGO DE COMPOSTELA, priority 2005, published 2008).
